Key:
Test in all cases: KinaseProfiler off-target kinase profiling
Assay type in all cases: biochemical
Conditions in all cases: 10 μM, ATP near Km
ERK1 = ERK1 (Homo sapiens (Human), UniProt P27361)
Summary of the method: (§1)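 10 μM test compound; ATP ~Km per kinase; n=2. Readout: POC, mean of duplicates.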

PKAC-alpha = PKAC-alpha (Homo sapiens (Human), UniProt P17612)
Summary of the method: as §1

DMPK = DMPK (Homo sapiens (Human), UniProt Q09013)
Summary of the method: as §1

FGFR4 = FGFR4 (Homo sapiens (Human), UniProt P22455)
Summary of the method: as §1

TLK2 = TLK2 (Homo sapiens (Human), UniProt Q86UE8)
Summary of the method: as §1

mTOR/FKBP12 = mTOR/FKBP12 (Homo sapiens (Human), UniProt P42345)
Summary of the method: as §1

AMPK(A1/B1/G1) = AMPK(A1/B1/G1) (Homo sapiens (Human), UniProt Q13131)
Summary of the method: as §1

Fer = Fer (Homo sapiens (Human), UniProt P16591)
Summary of the method: as §1

CAMK2b = CAMK2b (Homo sapiens (Human), UniProt Q13554)
Summary of the method: as §1

IGF-1R = IGF-1R (Homo sapiens (Human), UniProt P08069)
Summary of the method: as §1

EphB4 = EphB4 (Homo sapiens (Human), UniProt P54760)
Summary of the method: as §1

CK1gamma2 = CK1gamma2 (Homo sapiens (Human), UniProt P78368)
Summary of the method: as §1

Ret = Ret (Homo sapiens (Human), UniProt P07949)
Summary of the method: as §1

TAO1 = TAO1 (Homo sapiens (Human), UniProt Q7L7X3)
Summary of the method: as §1

MST1 = MST1 (Homo sapiens (Human), UniProt Q13043)
Summary of the method: as §1

SRPK1 = SRPK1 (Homo sapiens (Human), UniProt Q96SB4)
Summary of the method: as §1

JNK1alpha1 = JNK1alpha1 (Homo sapiens (Human), UniProt P45983)
Summary of the method: as §1

CHK1 = CHK1 (Homo sapiens (Human), UniProt O14757)
Summary of the method: as §1

IKKalpha = IKKalpha (Homo sapiens (Human), UniProt O15111)
Summary of the method: as §1

Pim-3 = Pim-3 (Homo sapiens (Human), UniProt Q86V86)
Summary of the method: as §1

Fyn = Fyn (Homo sapiens (Human), UniProt P06241)
Summary of the method: as §1

Yes = Yes (Homo sapiens (Human), UniProt P07947)
Summary of the method: as §1

LIMK1 = LIMK1 (Homo sapiens (Human), UniProt P53667)
Summary of the method: as §1

NEK6 = NEK6 (Homo sapiens (Human), UniProt Q9HC98)
Summary of the method: as §1

DYRK2 = DYRK2 (Homo sapiens (Human), UniProt Q92630)
Summary of the method: as §1

MELK = MELK (Homo sapiens (Human), UniProt Q14680)
Summary of the method: as §1

CAMK1 = CAMK1 (Homo sapiens (Human), UniProt Q14012)
Summary of the method: as §1

DDR2 = DDR2 (Homo sapiens (Human), UniProt Q16832)
Summary of the method: as §1

SRPK2 = SRPK2 (Homo sapiens (Human), UniProt P78362)
Summary of the method: as §1

CK2alpha2 = CK2alpha2 (Homo sapiens (Human), UniProt P19784)
Summary of the method: as §1

EphB1 = EphB1 (Homo sapiens (Human), UniProt P54762)
Summary of the method: as §1

TBK1 = TBK1 (Homo sapiens (Human), UniProt Q9UHD2)
Summary of the method: as §1

EphB3 = EphB3 (Homo sapiens (Human), UniProt P54753)
Summary of the method: as §1

CDK6/cyclinD3 = CDK6/cyclinD3 (Homo sapiens (Human), UniProt Q00534)
Summary of the method: as §1

PKCzeta = PKCzeta (Homo sapiens (Human), UniProt Q05513)
Summary of the method: as §1

Txk = Txk (Homo sapiens (Human), UniProt P42681)
Summary of the method: as §1

MuSK = MuSK (Homo sapiens (Human), UniProt O15146)
Summary of the method: as §1

CK1gamma1 = CK1gamma1 (Homo sapiens (Human), UniProt Q9HCP0)
Summary of the method: as §1

Rsk3 = Rsk3 (Homo sapiens (Human), UniProt Q15349)
Summary of the method: as §1

Ret, sequence (P07949 29-1114): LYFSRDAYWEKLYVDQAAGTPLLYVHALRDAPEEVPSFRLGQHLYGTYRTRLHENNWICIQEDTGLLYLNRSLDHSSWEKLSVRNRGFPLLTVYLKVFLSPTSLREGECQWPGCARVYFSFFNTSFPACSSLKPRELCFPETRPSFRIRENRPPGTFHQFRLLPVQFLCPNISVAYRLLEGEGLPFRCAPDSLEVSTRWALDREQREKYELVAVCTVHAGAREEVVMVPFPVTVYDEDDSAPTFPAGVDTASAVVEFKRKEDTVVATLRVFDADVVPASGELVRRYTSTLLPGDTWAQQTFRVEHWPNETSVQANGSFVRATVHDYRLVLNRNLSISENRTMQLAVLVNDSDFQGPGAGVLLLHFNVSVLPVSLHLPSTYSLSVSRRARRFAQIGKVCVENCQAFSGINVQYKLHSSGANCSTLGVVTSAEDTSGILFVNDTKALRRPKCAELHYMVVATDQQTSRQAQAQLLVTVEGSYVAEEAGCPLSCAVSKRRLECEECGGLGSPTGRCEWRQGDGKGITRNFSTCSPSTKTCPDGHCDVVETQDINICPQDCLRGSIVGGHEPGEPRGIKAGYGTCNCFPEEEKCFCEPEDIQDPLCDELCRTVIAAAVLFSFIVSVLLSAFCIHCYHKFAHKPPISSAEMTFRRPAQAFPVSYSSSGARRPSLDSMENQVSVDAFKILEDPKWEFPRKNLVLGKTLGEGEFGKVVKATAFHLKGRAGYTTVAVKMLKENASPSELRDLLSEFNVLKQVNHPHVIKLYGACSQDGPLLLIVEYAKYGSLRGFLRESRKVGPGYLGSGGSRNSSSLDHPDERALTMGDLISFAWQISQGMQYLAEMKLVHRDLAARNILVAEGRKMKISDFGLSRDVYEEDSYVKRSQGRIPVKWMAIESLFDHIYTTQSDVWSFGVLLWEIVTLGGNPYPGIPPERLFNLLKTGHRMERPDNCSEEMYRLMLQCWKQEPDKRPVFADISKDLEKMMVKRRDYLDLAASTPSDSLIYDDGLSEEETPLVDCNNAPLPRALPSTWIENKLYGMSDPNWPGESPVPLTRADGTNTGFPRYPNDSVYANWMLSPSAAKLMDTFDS
CHK1, sequence (O14757 whole entry): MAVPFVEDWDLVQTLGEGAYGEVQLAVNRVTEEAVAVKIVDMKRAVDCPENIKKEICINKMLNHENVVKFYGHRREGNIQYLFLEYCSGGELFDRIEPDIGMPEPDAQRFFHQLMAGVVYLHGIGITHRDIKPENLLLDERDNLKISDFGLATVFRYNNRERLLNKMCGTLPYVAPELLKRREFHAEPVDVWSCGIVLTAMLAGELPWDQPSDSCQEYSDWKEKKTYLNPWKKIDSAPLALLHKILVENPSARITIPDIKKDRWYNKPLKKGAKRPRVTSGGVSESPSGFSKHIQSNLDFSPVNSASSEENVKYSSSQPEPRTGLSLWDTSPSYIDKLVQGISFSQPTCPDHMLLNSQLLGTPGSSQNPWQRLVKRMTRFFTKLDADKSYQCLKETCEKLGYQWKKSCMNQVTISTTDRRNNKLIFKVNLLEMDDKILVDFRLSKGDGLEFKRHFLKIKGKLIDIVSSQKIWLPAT
mTOR/FKBP12, sequence (P42345 1362-2549): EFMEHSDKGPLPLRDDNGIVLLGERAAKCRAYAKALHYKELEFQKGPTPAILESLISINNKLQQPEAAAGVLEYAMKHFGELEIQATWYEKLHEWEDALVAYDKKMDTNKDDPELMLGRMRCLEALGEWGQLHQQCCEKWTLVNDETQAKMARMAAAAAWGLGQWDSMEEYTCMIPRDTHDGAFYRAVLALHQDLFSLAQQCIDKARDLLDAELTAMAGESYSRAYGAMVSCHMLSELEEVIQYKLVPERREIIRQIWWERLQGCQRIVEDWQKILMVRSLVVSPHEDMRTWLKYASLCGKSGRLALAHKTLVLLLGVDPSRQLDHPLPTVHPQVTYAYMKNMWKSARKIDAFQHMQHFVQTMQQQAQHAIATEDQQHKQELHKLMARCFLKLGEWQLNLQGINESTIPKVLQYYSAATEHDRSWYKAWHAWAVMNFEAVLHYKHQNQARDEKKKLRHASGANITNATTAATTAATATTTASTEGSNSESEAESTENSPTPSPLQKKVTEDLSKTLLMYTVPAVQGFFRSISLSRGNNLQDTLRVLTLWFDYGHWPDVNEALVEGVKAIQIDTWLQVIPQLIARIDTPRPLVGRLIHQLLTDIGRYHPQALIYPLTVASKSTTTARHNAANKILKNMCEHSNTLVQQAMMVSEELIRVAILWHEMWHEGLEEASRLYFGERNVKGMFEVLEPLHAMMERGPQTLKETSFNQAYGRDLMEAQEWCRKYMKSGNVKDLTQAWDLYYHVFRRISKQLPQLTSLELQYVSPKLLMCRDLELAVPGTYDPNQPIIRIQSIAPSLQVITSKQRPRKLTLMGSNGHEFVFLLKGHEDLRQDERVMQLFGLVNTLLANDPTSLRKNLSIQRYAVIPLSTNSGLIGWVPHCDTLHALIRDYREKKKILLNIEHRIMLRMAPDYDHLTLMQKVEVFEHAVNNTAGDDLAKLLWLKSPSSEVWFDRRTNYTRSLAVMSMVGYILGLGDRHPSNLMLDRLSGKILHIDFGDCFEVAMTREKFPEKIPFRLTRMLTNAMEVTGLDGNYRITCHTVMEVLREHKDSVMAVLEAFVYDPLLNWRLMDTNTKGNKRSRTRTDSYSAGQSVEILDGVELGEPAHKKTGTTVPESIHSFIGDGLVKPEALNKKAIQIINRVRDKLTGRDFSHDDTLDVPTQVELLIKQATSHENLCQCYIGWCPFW
ERK1, sequence (P27361 whole entry): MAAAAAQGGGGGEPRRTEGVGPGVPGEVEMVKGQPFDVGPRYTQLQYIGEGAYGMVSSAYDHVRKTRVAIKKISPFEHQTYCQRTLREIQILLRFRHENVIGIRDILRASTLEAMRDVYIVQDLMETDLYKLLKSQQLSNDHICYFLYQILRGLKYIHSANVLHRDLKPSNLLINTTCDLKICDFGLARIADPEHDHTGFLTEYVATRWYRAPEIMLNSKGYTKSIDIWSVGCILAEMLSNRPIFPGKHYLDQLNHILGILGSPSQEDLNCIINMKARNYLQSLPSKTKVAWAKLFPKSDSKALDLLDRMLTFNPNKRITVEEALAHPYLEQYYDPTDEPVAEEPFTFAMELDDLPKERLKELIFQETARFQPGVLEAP
CAMK2b, sequence (Q13554 whole entry): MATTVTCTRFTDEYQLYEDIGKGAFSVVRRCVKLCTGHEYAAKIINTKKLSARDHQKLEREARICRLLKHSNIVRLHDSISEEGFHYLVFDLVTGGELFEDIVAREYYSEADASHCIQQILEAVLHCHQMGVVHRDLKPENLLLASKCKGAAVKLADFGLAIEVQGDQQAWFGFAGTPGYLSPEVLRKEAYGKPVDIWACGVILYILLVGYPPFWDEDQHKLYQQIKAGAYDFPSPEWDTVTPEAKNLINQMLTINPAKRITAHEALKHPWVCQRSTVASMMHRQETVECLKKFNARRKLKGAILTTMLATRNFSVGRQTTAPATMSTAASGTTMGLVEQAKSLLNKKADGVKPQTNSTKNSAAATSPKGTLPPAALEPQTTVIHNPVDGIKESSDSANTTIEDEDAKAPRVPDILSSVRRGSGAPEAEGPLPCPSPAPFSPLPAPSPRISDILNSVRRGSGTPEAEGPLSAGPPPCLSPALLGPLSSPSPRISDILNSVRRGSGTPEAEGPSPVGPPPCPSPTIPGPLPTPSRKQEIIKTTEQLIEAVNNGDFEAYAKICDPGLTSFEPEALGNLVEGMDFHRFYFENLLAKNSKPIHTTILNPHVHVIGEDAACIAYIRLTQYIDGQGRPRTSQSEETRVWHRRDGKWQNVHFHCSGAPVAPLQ
MELK, sequence (Q14680 whole entry): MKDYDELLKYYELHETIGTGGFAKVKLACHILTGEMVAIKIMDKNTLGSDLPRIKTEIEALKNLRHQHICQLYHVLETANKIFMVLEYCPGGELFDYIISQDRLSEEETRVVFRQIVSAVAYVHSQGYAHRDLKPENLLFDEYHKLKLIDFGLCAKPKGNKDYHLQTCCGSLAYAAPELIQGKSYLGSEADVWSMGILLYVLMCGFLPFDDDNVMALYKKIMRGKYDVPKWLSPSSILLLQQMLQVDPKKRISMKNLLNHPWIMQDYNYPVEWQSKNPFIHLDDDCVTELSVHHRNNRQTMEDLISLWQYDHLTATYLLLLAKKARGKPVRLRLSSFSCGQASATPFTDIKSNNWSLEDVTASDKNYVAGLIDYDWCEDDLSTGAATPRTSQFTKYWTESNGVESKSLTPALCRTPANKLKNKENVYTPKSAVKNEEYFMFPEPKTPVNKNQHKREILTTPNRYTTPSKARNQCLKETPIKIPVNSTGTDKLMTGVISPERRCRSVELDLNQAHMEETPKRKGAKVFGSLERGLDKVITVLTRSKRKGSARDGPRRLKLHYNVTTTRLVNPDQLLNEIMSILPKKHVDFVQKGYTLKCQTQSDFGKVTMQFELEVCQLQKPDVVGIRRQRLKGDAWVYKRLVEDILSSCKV
PKCzeta, sequence (Q05513 whole entry): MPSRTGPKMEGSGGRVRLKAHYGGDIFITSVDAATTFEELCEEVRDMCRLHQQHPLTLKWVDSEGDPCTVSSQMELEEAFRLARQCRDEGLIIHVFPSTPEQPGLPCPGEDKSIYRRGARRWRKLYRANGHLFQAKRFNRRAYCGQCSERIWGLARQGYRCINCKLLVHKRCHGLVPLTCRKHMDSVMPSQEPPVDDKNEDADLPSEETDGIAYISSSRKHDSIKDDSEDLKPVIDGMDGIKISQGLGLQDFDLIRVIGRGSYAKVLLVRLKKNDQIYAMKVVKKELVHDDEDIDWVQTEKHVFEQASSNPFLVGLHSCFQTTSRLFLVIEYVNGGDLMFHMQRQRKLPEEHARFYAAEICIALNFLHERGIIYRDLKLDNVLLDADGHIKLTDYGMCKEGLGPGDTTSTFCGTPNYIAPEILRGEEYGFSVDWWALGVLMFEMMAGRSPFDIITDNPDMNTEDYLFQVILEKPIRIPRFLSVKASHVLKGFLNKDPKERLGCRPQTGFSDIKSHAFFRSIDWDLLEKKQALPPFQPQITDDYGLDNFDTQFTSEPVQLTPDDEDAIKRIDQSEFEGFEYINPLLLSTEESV

Avg. POC (ERK1) [POC] | Avg. POC (PKAC-alpha) [POC] | Avg. POC (DMPK) [POC] | Avg. POC (FGFR4) [POC] | Avg. POC (TLK2) [POC] | Avg. POC (mTOR/FKBP12) [POC] | Avg. POC (AMPK(A1/B1/G1)) [POC] | Avg. POC (Fer) [POC] | Avg. POC (CAMK2b) [POC] | Avg. POC (IGF-1R) [POC] | Avg. POC (EphB4) [POC] | Avg. POC (CK1gamma2) [POC] | Avg. POC (Ret) [POC] | Avg. POC (TAO1) [POC] | Avg. POC (MST1) [POC] | Avg. POC (SRPK1) [POC] | Avg. POC (JNK1alpha1) [POC] | Avg. POC (CHK1) [POC] | Avg. POC (IKKalpha) [POC] | Avg. POC (Pim-3) [POC] | other results | SMILES
120.5 | 138.5 | 105 | 124 | 100 | 105 | 152.5 | 110.5 | 106.5 | 18 | 118.5 | 142.5 | 118.5 | 110.5 | 111.5 | 122 | 94 | 106.5 | 141.5 | 98 | Avg. POC (Fyn): 123.5 POC; Avg. POC (Yes): 132.5 POC; Avg. POC (LIMK1): 105 POC; Avg. POC (NEK6): 125.5 POC; Avg. POC (DYRK2): 98 POC; Avg. POC (MELK): 142 POC; Avg. POC (CAMK1): 109.5 POC; Avg. POC (DDR2): 113 POC; Avg. POC (SRPK2): 106 POC; Avg. POC (CK2alpha2): 125 POC; Avg. POC (EphB1): 108.5 POC; Avg. POC (TBK1): 116 POC; Avg. POC (EphB3): 110 POC; Avg. POC (CDK6/cyclinD3): 100 POC; Avg. POC (PKCzeta): 122.5 POC; Avg. POC (Txk): 125 POC; Avg. POC (MuSK): 103.5 POC; Avg. POC (CK1gamma1): 116.5 POC; Avg. POC (Rsk3): 106 POC | Cc1c(-c2cnn(C)c2)nn(-c2ccccc2)c1NC(=O)N[C@H]1CCCc2ccccc21 [Example 2, (S)-1-(1′,4-dimethyl-1-phenyl-1H,1′H-3,4′-bipyrazol-5-yl)-3-(1,2,3,4-tetrahydronaphthalen-1-yl)urea]
105 | 120.5 | 104 | 119 | 98 | 105.5 | 117 | 100.5 | 106 | 80 | 121 | 114.5 | 85 | 104 | 92 | 97.5 | 109.5 | 99.5 | 119.5 | 100.5 | Avg. POC (Fyn): 92.5 POC; Avg. POC (Yes): 119.5 POC; Avg. POC (LIMK1): 97.5 POC; Avg. POC (NEK6): 121 POC; Avg. POC (DYRK2): 97.5 POC; Avg. POC (MELK): 67 POC; Avg. POC (CAMK1): 102 POC; Avg. POC (DDR2): 107 POC; Avg. POC (SRPK2): 101.5 POC; Avg. POC (CK2alpha2): 107.5 POC; Avg. POC (EphB1): 114 POC; Avg. POC (TBK1): 103 POC; Avg. POC (EphB3): 89 POC; Avg. POC (CDK6/cyclinD3): 103 POC; Avg. POC (PKCzeta): 99.5 POC; Avg. POC (Txk): 139 POC; Avg. POC (MuSK): 98.5 POC; Avg. POC (CK1gamma1): 98.5 POC; Avg. POC (Rsk3): 90 POC | Cc1c(-c2cnn(C)c2)nn(-c2ccccc2)c1NC(=O)NC1CCOc2cc(F)ccc21 (stereo not drawn) [Example 12, 1-(1′,4-dimethyl-1-phenyl-1H,1′H-[3,4′-bipyrazol]-5-yl)-3-(7-fluorochroman-4-yl)urea]
109.5 | 116 | 106 | 123 | 97 | 107.5 | 122.5 | 98 | 107 | 60.5 | 115 | 112.5 | 106.5 | 105.5 | 102 | 102.5 | 112 | 70.5 | 112.5 | 98 | Avg. POC (Fyn): 115.5 POC; Avg. POC (Yes): 117.5 POC; Avg. POC (LIMK1): 102 POC; Avg. POC (NEK6): 123.5 POC; Avg. POC (DYRK2): 103 POC; Avg. POC (MELK): 86 POC; Avg. POC (CAMK1): 106 POC; Avg. POC (DDR2): 111 POC; Avg. POC (SRPK2): 106 POC; Avg. POC (CK2alpha2): 114 POC; Avg. POC (EphB1): 116.5 POC; Avg. POC (TBK1): 113 POC; Avg. POC (EphB3): 97 POC; Avg. POC (CDK6/cyclinD3): 104.5 POC; Avg. POC (PKCzeta): 108.5 POC; Avg. POC (Txk): 119 POC; Avg. POC (MuSK): 99.5 POC; Avg. POC (CK1gamma1): 106.5 POC; Avg. POC (Rsk3): 76.5 POC | Cc1c(-c2ccc(=O)n(C)c2)nn(-c2ccccc2)c1NC(=O)NC1CN(CC(F)(F)F)Cc2ccccc21 (stereo not drawn) [Example 26, 1-(4-methyl-3-(1-methyl-6-oxo-1,6-dihydropyridin-3-yl)-1-phenyl-1H-pyrazol-5-yl)-3-(2-(2,2,2-trifluoroethyl)-1,2,3,4-tetrahydroisoquinolin-4-yl)urea]
107 | 90 | 98.5 | 139.5 | 92 | 113.5 | 138.5 | 85 | 102.5 | 84.5 | 106 | 101.5 | 100.5 | 100 | 105.5 | 99.5 | 118 | 103 | 102 | 112 | Avg. POC (Fyn): 111 POC; Avg. POC (Yes): 114.5 POC; Avg. POC (LIMK1): 95 POC; Avg. POC (NEK6): 123 POC; Avg. POC (DYRK2): 97.5 POC; Avg. POC (MELK): 98 POC; Avg. POC (CAMK1): 100 POC; Avg. POC (DDR2): 116 POC; Avg. POC (SRPK2): 106.5 POC; Avg. POC (CK2alpha2): 104 POC; Avg. POC (EphB1): 145.5 POC; Avg. POC (TBK1): 108.5 POC; Avg. POC (EphB3): 87.5 POC; Avg. POC (CDK6/cyclinD3): 108 POC; Avg. POC (PKCzeta): 115 POC; Avg. POC (Txk): 127 POC; Avg. POC (MuSK): 104.5 POC; Avg. POC (CK1gamma1): 111.5 POC; Avg. POC (Rsk3): 92 POC | COCc1ccc2c(c1)C(NC(=O)Nc1c(C)c(-c3cnn(C)c3)nn1-c1ccccc1)COC2 (stereo not drawn) [Example 32, 1-(1′,4-dimethyl-1-phenyl-1H,1′H-[3,4′-bipyrazol]-5-yl)-3-(6-(methoxymethyl)isochroman-4-yl)urea]
